21 compounds from US12692253B2, “Antimicrobial compounds and methods” (Curza Global, LLC, priority 2019, dated 2026) can be followed below.

Each structure is given as a SMILES string.

The target in assay [1] is Rabbit Reticulocyte Lysate (eukaryotic protein synthesis). The experiment in a line: Rabbit reticulocyte lysate luciferase assay (inhibition of eukaryotic protein synthesis). The class given is biochemical. The settings on record: % inhibition @ 1 μM, read-out: Rabbit reticulocyte IC50 (μM/% inhib.). The procedure, abridged: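 In vitro translation of luciferase control RNA in nuclease-treated rabbit reticulocyte lysate with amino acid mixture, compounds in 2-fold serial dilution, 90 minutes at 30° C. Luminescence read after luciferase reagent; % inhibition relative to water no-inhibitor controls, with no-RNA background wells.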

For assay [2], the system named is E. coli S30 extract (bacterial protein synthesis). Kind of assay: E. coli S30 extract coupled transcription-translation luciferase assay (inhibition of bacterial protein synthesis). The class given is biochemical. The following applies: % inhibition @ 1 μM, read-out: S30 IC50 (μM/% inhib.). The procedure, abridged: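 Coupled transcription-translation in E. coli S30 circular-DNA extract expressing luciferase from pBESTluc, with 8-point 2-fold compound dilutions; 1 hour at 37 °C, stopped at 4 °C. Luminescence read; % inhibition versus no-inhibitor wells, no-DNA wells as background.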

Assay [3] has as its system A. baumannn (Ab). Kind of assay: Broth microdilution minimum inhibitory concentration (MIC), CLSI. Format: cell-based. The settings on record: A. baumannn; growth medium with sodium bicarbonate; read-out: Ab + bicarb MIC. The procedure, abridged: (§1)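 CLSI broth microdilution with modification: 8-point two-fold compound dilutions in CAMHB, CAMHB plus 6.25 or 25 mM sodium bicarbonate, or CAMHB plus 0–50% heat-inactivated human serum. Inoculum 5×10^4 CFU/well from log-phase cultures adjusted to 0.5 McFarland; triplicate wells.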
(In general: Broth dilution looks for growth in wells or tubes with falling amounts of substance.)

In assay [4] the test system is E. faecalis (Ef). Described as above. Format: cell-based. The following applies: growth medium with sodium bicarbonate; for MIC: Enterococcus faecalis, read-out: Ef + bicarb MIC. The gist of the method: as §1
The test system of assay [5] is E. coli (Ec). The assay is described as above. Format: cell-based. The following applies: Escherichia coli, growth medium with sodium bicarbonate, read-out: E. coli + bicarb MIC. The procedure, abridged: as §1
For assay [6], the system named is P. aeruginosa (Pa). The assay is described as above. Format: cell-based. The following applies: Pseudomonas aeruginosa, growth medium with sodium bicarbonate, read-out: Pa MIC + bicarb. The procedure, abridged:
as §1

Assay [7] concerns S. aureus (Sa). Described as above. The class given is cell-based. The following applies: Staphylococcus aureus, growth medium with sodium bicarbonate, read-out: Sa + bicarb MIC. The procedure, abridged:
as §1

Regarding `CC(Cc1ccc(-n2ccc(NC(=O)N3CCN(C(=O)C(C)(C)N)CC3)nc2=O)cc1)N(C)C12CC(CN)(C1)C2` (stereo not drawn) [Compound 200], the IC50 in assay [1] and in assay [2] was at least 1 µM each time. Also, the MIC in assay [3] is over 32 µg/mL; in assay [4], over 32 µg/mL; in assay [5], under 8 µg/mL; in assay [6], over 32 µg/mL; in assay [7] it was under 8 µg/mL.

Regarding `CCN(C(C)Cc1ccc(-n2ccc(NC(=O)N3CCN(C(=O)C(C)(C)N)CC3)nc2=O)cc1)C12CC(CN)(C1)C2` (stereo not drawn) [Compound 201], the IC50 in assay [1] was at least 1 µM; in assay [2], under 0.5 µM. The MIC in assay [3] was over 32 µg/mL; in assay [4], under 8 µg/mL; in assay [5], under 8 µg/mL; in assay [6], over 32 µg/mL; in assay [7], under 8 µg/mL.

Turning to `CC(Cc1ccc(-n2ccc(NC(=O)N3CCN(C(=O)C(C)(C)N)CC3)nc2=O)cc1)NC12CC(N)(C1)C2` (stereo not drawn) [Compound 202], the IC50 in assay [1] and in assay [2] was at least 1 µM in each case. Further, the MIC in assay [3] is 8 to 32 µg/mL; in assay [4], over 32 µg/mL; in assay [5], over 32 µg/mL; in assay [6], over 32 µg/mL; in assay [7], over 32 µg/mL.

For the compound `CC(Cc1ccc(-n2ccc(NC(=O)N3CCN(C(=O)C(C)(C)N)CC3)nc2=O)cc1)NC12CC(CN)(C1)C2` (stereo not drawn) [Compound 203], the IC50 in assay [1] and in assay [2] was at least 1 µM in each case. Besides, the MIC in assay [3] is over 32 µg/mL; in assay [4], over 32 µg/mL; in assay [5] it was 8 to 32 µg/mL; in assay [6] it was over 32 µg/mL; in assay [7], 8 to 32 µg/mL.

For `CC(Cc1ccc(-n2ccc(NC(=O)N3CCN(C(=O)C(C)(C)N)CC3)nc2=O)cc1)NCC1[C@H]2CNC[C@@H]12` (stereo partly drawn) [Compound 204], the IC50 in assay [1] and in assay [2] was at least 1 µM throughout. Moreover, the MIC is over 32 µg/mL in assay [3]; over 32 µg/mL in assay [4]; under 8 µg/mL in assay [5]; over 32 µg/mL in assay [6]; under 8 µg/mL in assay [7].

As to `CC(Cc1ccc(-n2ccc(NC(=O)N3CCN(C(=O)C(C)(C)N)CC3)nc2=O)cc1)N1C[C@@H]2[C@H](C1)[C@H]2C(C)(C)N` (stereo partly drawn) [Compound 205], the IC50 in assay [1] and in assay [2] was at least 1 µM each time. Besides, the MIC in assay [3] was over 32 µg/mL; in assay [4], over 32 µg/mL; in assay [5] it was 8 to 32 µg/mL; in assay [6], over 32 µg/mL; in assay [7], 8 to 32 µg/mL.

In the case of `CC(C)(N)C(=O)N1CCN(C(=O)Nc2ccn(-c3ccc(CN4C[C@@H]5C(C(C)(C)N)[C@@H]5C4)cc3)c(=O)n2)CC1` (stereo partly drawn) [Compound 206], the IC50 in assay [1] is at least 1 µM; in assay [2] it was under 0.5 µM. The MIC was over 32 µg/mL in assay [3]; 8 to 32 µg/mL in assay [4]; under 8 µg/mL in assay [5]; over 32 µg/mL in assay [6]; under 8 µg/mL in assay [7].

As for `CC(C)(N)C(=O)N1CCN(C(=O)Nc2ccn(-c3ccc(CN4C[C@@H]5C([C@H](N)CO)[C@@H]5C4)cc3)c(=O)n2)CC1` (stereo partly drawn) [Compound 207], the IC50 in assay [1] is at least 1 µM; in assay [2], under 0.5 µM. Besides, the minimum inhibitory concentration (MIC) was over 32 µg/mL in assay [3]; 8 to 32 µg/mL in assay [4]; under 8 µg/mL in assay [5]; over 32 µg/mL in assay [6]; under 8 µg/mL in assay [7].

As for `CC(Cc1ccc(-n2ccc(NC(=O)N3CCN(C(=O)C(C)(C)N)CC3)nc2=O)cc1C(F)(F)F)N1C[C@@H]2[C@@H](CN)[C@@H]2C1` (stereo partly drawn) [Compound 208], the values for the IC50 in assay [1] and in assay [2] were at least 1 µM and under 0.5 µM, respectively. Moreover, the MIC in assay [3] was 8 to 32 µg/mL; in assay [4], under 8 µg/mL; in assay [5], under 8 µg/mL; in assay [6] it was over 32 µg/mL; in assay [7] it was under 8 µg/mL.

As for `CC(Cc1ccc(-n2ccc(NC(=O)N3CCN(C(=O)C(C)(C)N)CC3)nc2=O)cc1C(F)(F)F)N1C[C@@H]2[C@@H](N)[C@@H]2C1` (stereo partly drawn) [Compound 209], the IC50 in assay [1] and in assay [2] was at least 1 µM in each case. The MIC in assay [3], in assay [4], in assay [5], in assay [6] and in assay [7] was over 32 µg/mL in each case.

For the compound `CC(C)(N)C(=O)N1CCN(C(=O)Nc2ccn(-c3ccc(CCN4C[C@@H]5[C@H](C4)[C@H]5C(N)CO)cc3)c(=O)n2)CC1` (stereo partly drawn) [Compound 210], the figures for the IC50 in assay [1] and in assay [2] were at least 1 µM and 0.5 to 1 µM, respectively. Moreover, the MIC in assay [3] was over 32 µg/mL; in assay [4], 8 to 32 µg/mL; in assay [5] it was under 8 µg/mL; in assay [6], over 32 µg/mL; in assay [7], under 8 µg/mL.

For `CCC(Cc1ccc(-n2ccc(NC(=O)N3CCN(C(=O)C(C)(C)N)CC3)nc2=O)cc1C(F)(F)F)N1C[C@@H]2[C@@H](CN)[C@@H]2C1` (stereo partly drawn) [Compound 211], the IC50 is at least 1 µM in assay [1] and 0.5 to 1 µM in assay [2]. For the same compound, the MIC was 8 to 32 µg/mL in assay [3]; under 8 µg/mL in assay [4]; under 8 µg/mL in assay [5]; over 32 µg/mL in assay [6]; under 8 µg/mL in assay [7].

Regarding `CC(=O)NC[C@@H]1[C@H]2CN(C(C)Cc3ccc(-n4ccc(NC(=O)N5CCN(C(=O)C(C)(C)N)CC5)nc4=O)cc3)C[C@@H]12` (stereo partly drawn) [Compound 212], the IC50 in assay [1] and in assay [2] was at least 1 µM in each case. Also, the MIC in assay [3], in assay [4], in assay [5], in assay [6] and in assay [7] was over 32 µg/mL each time.

With `CC(C)(N)C(=O)N1CCN(C(=O)Nc2ccn(-c3ccc(CCN4C[C@@H]5[C@H](C4)[C@H]5C(N)CN)cc3)c(=O)n2)CC1` (stereo partly drawn) [Compound 213], the IC50 in assay [1] and in assay [2] was at least 1 µM throughout. The minimum inhibitory concentration (MIC) was over 32 µg/mL in assay [3]; over 32 µg/mL in assay [4]; under 8 µg/mL in assay [5]; over 32 µg/mL in assay [6]; over 32 µg/mL in assay [7].

As to `CC(Cc1ccc(-n2ccc(NC(=O)N3CCN(C(=O)C(C)(C)N)CC3)nc2=O)cc1)N1CC2CCC(N)C2C1` (stereo not drawn) [Compound 214], the values for the IC50 in assay [1] and in assay [2] were at least 1 µM and under 0.5 µM, respectively. Also, the MIC was over 32 µg/mL in assay [3]; under 8 µg/mL in assay [4]; under 8 µg/mL in assay [5]; over 32 µg/mL in assay [6]; under 8 µg/mL in assay [7].

Take `CC(Cc1ccc(-n2ccc(NC(=O)N3CCN(C(=O)C(C)(C)N)CC3)nc2=O)cc1)N1CC2CCC(N)CC2C1` (stereo not drawn) [Compound 215]: the IC50 in assay [1] was at least 1 µM; in assay [2], under 0.5 µM. Further, the MIC in assay [3] was over 32 µg/mL; in assay [5] it was under 8 µg/mL; in assay [6] it was over 32 µg/mL; in assay [7] it was under 8 µg/mL. The “Ef + bicarb MIC” value in assay [4] was “++ (An MIC value (μg/mL) that is 8 μg/mL or greater and less than 32 μg/mL)”.

Turning to `CC(Cc1ccc(-n2ccc(NC(=O)N3CCN(C(=O)C(C)(C)N)CC3)nc2=O)cc1)N1CC2CCCC(N)C2C1` (stereo not drawn) [Compound 216], the values for the IC50 in assay [1] and in assay [2] were at least 1 µM and under 0.5 µM, respectively. The MIC in assay [3] was over 32 µg/mL; in assay [4] it was under 8 µg/mL; in assay [5], under 8 µg/mL; in assay [6], over 32 µg/mL; in assay [7], under 8 µg/mL.

With `CCC(Cc1ccc(-n2ccc(NC(=O)N3CCN(C(=O)C(C)(C)N)CC3)nc2=O)cc1)N1CC2CCC(N)C2C1` (stereo not drawn) [Compound 217], the IC50 was at least 1 µM in assay [1] and under 0.5 µM in assay [2]. The MIC was over 32 µg/mL in assay [3]; under 8 µg/mL in assay [4]; under 8 µg/mL in assay [5]; over 32 µg/mL in assay [6]; under 8 µg/mL in assay [7].

On to `CCC(Cc1ccc(-n2ccc(NC(=O)N3CCN(C(=O)C(C)(C)N)CC3)nc2=O)cc1)N1CC2CCC(N)CC2C1` (stereo not drawn) [Compound 218], for which the IC50 in assay [1] is at least 1 µM; in assay [2] it was under 0.5 µM. Also, the MIC is over 32 µg/mL in assay [3], under 8 µg/mL in assay [5], over 32 µg/mL in assay [6] and under 8 µg/mL in assay [7]. In addition, the “Ef + bicarb MIC” value in assay [4] is “+++ (An MIC value (μg/mL) that is less than 8 μg/mL)”.

With `CCC(Cc1ccc(-n2ccc(NC(=O)N3CCN(C(=O)C(C)(C)N)CC3)nc2=O)cc1)N1CC2CCCC(N)C2C1` (stereo not drawn) [Compound 219], the IC50 in assay [1] was at least 1 µM; in assay [2] it was under 0.5 µM. Besides, the MIC in assay [3] was over 32 µg/mL; in assay [4], under 8 µg/mL; in assay [5], under 8 µg/mL; in assay [6], over 32 µg/mL; in assay [7] it was under 8 µg/mL.

Regarding `CC(Cc1ccc(-n2ccc(NC(=O)N3CCN(C(=O)C(C)(C)N)CC3)nc2=O)cc1)[N+]1(C)C[C@@H]2[C@@H](CN)[C@@H]2C1` (stereo partly drawn) [Compound 220], the IC50 in assay [1] was at least 1 µM; in assay [2], under 0.5 µM. The MIC in assay [3] was over 32 µg/mL; in assay [4], 8 to 32 µg/mL; in assay [5] it was under 8 µg/mL; in assay [6], over 32 µg/mL; in assay [7] it was under 8 µg/mL.

As a reminder, the MIC is the least concentration at which growth counts as inhibited.
